Source: US7405317B2, “Phosphate-bearing prodrugs of sulfonyl hydrazines as hypoxia-selective antineoplastic agents” (priority 2004, dated 2008)

Key:
[1] = test system: SHP77 human lung carcinoma; experiment: In vivo anti-tumor activity, SHP77 xenograft; set-up: species or system mice; conditions: SHP77/Scid-Beige; dose VNP40541 110 mpk, VNP40551 85 mpk
Protocol: The anti-tumor effects of aforementioned prodrugs are evaluated in both solid and liquid tumor models, including the B16-F10 murine melanoma, HTB177 human lung carcinoma models, DLD1 human colon carcinoma, EMT-6 murine mammary gland carcinoma, L1210 murine leukemia, lymphoma, prostate cancer, pancreatic cancer, and head-and-neck cancer. The prodrugs are given intravenously, orally, or intraperitoneally at doses from 10 mg/kg to 2000 mg/kg; they are give at different dosing schedules such as 4 times daily, once daily, or once every several days for up to 60 doses. Testing tumor cells were implanted subcutaneously into mice, which were randomized into groups immediately after tumor cell implantation (Day 0). Mice were injected intraperitoneally (ip) with either a bolus injection of 0.1 mL PBS or drug. The treatment was carried out in a designed dosing schedule. Tumor measurement in three dimensions was determined once a week with the formula L×H×W/2, where L, H, and W represent length, height, and width, respectively. The toxicity of these drugs in mice was mild as determined by body weight loss and animal appearance.
Efficacy of KS119 was studied in murine tumor model and human xenograft models. EMT-6 murine mammary carcinoma cells (3×10^5 cells/mouse) were implanted subcutaneously into Balb/c mice. […]

[2] = Maximum tolerated dose (MTD) finding; type: in vivo, mice
Protocol: In order to fairly select a better compound from two enantiomers of KS119W for future clinical development, finding maximum tolerated dose (MTD) for VNP40541 (R-form) and VNP40551 (S-form) was conducted and the results were shown as Table 3.

[3] = Short term stability as a function of pH and citrate buffer (HPLC); type: physicochemical; conditions: 20 mg/mL
Protocol: The stabilities of VNP40541 were investigated. The sample (20 mg/mL) was dissolved in 20 mM citric acid and titrated to pH 2.0, pH 3.0, pH 4.0, pH 5.0, pH 6.0, and pH 7.0. To control for buffer catalysis, the drug was also titrated to pH 2.0, pH 5.0, and pH 6.0 in the absence of citrate. The samples were stored at 40° C. for 3 hours, 24 hours, and 3 days, and at room temperature for 24 hours, 3 days. Upon completion of each time point, samples were placed in a freezer at −15° C. Control samples of each preparation were also stored in the freezer. Each sample was analyzed by HPLC repetitively, at various time points, to determine the concentration of the respective drug.

**Q.** What does the source list for `C[C@@H](OC(=O)N(N(CCCl)S(C)(=O)=O)S(C)(=O)=O)c1ccc([N+](=O)[O-])c(OP(=O)(O)O)c1` [VNP40541]?
**A.** Inhibition (%) [1]: 83%; MTD ([2]; BALB/c mice, × 5): 100 mpk; MTD ([2]; Nude CD-1 mice, × 10): 140 mpk; MTD ([2]; Scid/Beige mice, × 8): 110 mpk; Assay (HPLC, relative to control samples stored at −15° C.) ([3]; pH 2.0, citrate 20 mM, 3 hrs 40° C.): 98.8%; Assay (HPLC, relative to control samples stored at −15° C.) ([3]; pH 2.0, citrate 20 mM, 24 hrs 40° C.): 92.3%; Assay (HPLC, relative to control samples stored at −15° C.) ([3]; pH 2.0, citrate 20 mM, 24 hrs Room Temp.): 99.3%; Assay (HPLC, relative to control samples stored at −15° C.) ([3]; pH 2.0, citrate None, 3 hrs 40° C.): 98.9%; Assay (HPLC, relative to control samples stored at −15° C.) ([3]; pH 2.0, citrate None, 24 hrs 40° C.): 91.7%; Assay (HPLC, relative to control samples stored at −15° C.) ([3]; pH 2.0, citrate None, 24 hrs Room Temp.): 99.4%; Assay (HPLC, relative to control samples stored at −15° C.) ([3]; pH 3.0, citrate 20 mM, 3 hrs 40° C.): 98.9%; Assay (HPLC, relative to control samples stored at −15° C.) ([3]; pH 3.0, citrate 20 mM, 24 hrs 40° C.): 91.3%; Assay (HPLC, relative to control samples stored at −15° C.) ([3]; pH 3.0, citrate 20 mM, 24 hrs Room Temp.): 99.3%; Assay (HPLC, relative to control samples stored at −15° C.) ([3]; pH 4.0, citrate 20 mM, 3 hrs 40° C.): 99.8%; Assay (HPLC, relative to control samples stored at −15° C.) ([3]; pH 4.0, citrate 20 mM, 24 hrs 40° C.): 92.2%; Assay (HPLC, relative to control samples stored at −15° C.) ([3]; pH 4.0, citrate 20 mM, 24 hrs Room Temp.): 100.1%; Assay (HPLC, relative to control samples stored at −15° C.) ([3]; pH 5.0, citrate 20 mM, 3 hrs 40° C.): 98.8%; Assay (HPLC, relative to control samples stored at −15° C.) ([3]; pH 5.0, citrate 20 mM, 24 hrs 40° C.): 92.2%; Assay (HPLC, relative to control samples stored at −15° C.) ([3]; pH 5.0, citrate 20 mM, 24 hrs Room Temp.): 99.4%; Assay (HPLC, relative to control samples stored at −15° C.) ([3]; pH 5.0, citrate None, 3 hrs 40° C.): 99.4%; Assay (HPLC, relative to control samples stored at −15° C.) ([3]; pH 5.0, citrate None, 24 hrs 40° C.): 92.5%; Assay (HPLC, relative to control samples stored at −15° C.) ([3]; pH 5.0, citrate None, 24 hrs Room Temp.): 99.7%; Assay (HPLC, relative to control samples stored at −15° C.) ([3]; pH 6.0, citrate 20 mM, 3 hrs 40° C.): 99.0%; Assay (HPLC, relative to control samples stored at −15° C.) ([3]; pH 6.0, citrate 20 mM, 24 hrs 40° C.): 93.8%; Assay (HPLC, relative to control samples stored at −15° C.) ([3]; pH 6.0, citrate 20 mM, 24 hrs Room Temp.): 98.6%; Assay (HPLC, relative to control samples stored at −15° C.) ([3]; pH 6.0, citrate None, 3 hrs 40° C.): 99.3%; Assay (HPLC, relative to control samples stored at −15° C.) ([3]; pH 6.0, citrate None, 24 hrs 40° C.): 93.8%; Assay (HPLC, relative to control samples stored at −15° C.) ([3]; pH 6.0, citrate None, 24 hrs Room Temp.): 100.0%; Assay (HPLC, relative to control samples stored at −15° C.) ([3]; pH 7.0, citrate 20 mM, 3 hrs 40° C.): 99.6%; Assay (HPLC, relative to control samples stored at −15° C.) ([3]; pH 7.0, citrate 20 mM, 24 hrs 40° C.): 94.0%; Assay (HPLC, relative to control samples stored at −15° C.) ([3]; pH 7.0, citrate 20 mM, 24 hrs Room Temp.): 99.7%
